According to the supplement of paper PMC11451515:

Columns and labels:
Experiment in all cases: AUC of viability dose-response curve (% viability x log10 dose units); higher = less sensitive
Conditions in all cases: 48 h
[1] = tested on: SEM cells
Outline: (§1)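 Seeding of medium-adapted leukemia cells was at 500 or 1000 cells/well in 1536-well plates, followed by 48 h at 37°C with library compounds in DMSO at 11 threefold doses from 47 μM to 0.79 nM. CellTiter-Glo One luminescence was normalised per plate to DMSO and cell-free wells and fitted as a four-parameter log-logistic function of log10 dose. Area under the curve was integrated by trapezoidal rule, with curves exceeding full viability scaled and curves failing quality control removed.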

[2] = tested on: NOMO1
Outline: as §1

[3] = tested on: P12-Ichikawa
Outline: as §1

[4] = RPMI 5 mM glucose + 10% dialyzed FBS

| SMILES | AUC of viability dose-response curve ([1]; HPLM + 10% dialyzed FBS) | AUC of viability dose-response curve ([1]; RPMI 5 mM glucose + 10% FBS) | AUC of viability dose-response curve [1, 4] | AUC of viability dose-response curve ([2]; HPLM + 10% dialyzed FBS) | AUC of viability dose-response curve ([2]; RPMI 5 mM glucose + 10% FBS) | AUC of viability dose-response curve [2, 4] | AUC of viability dose-response curve ([3]; HPLM + 10% dialyzed FBS) | AUC of viability dose-response curve ([3]; RPMI 5 mM glucose + 10% FBS) | AUC of viability dose-response curve [3, 4] |
| --- | --- | --- | --- | --- | --- | --- | --- | --- | --- |
| COC1=CC=C(C=C1O)C/2=C/C(=O)C3=C(O2)C=C(O)C=C3O | 419 | 456 | 456 | 466 | 428 | 437 | 440 | 446 | 381 |
| Nc1nc(N)c2nc(-c3cccc(O)c3)c(-c3cccc(O)c3)nc2n1 | 409 | 430 | 420 | 402 | 443 | 440 | 409 | 445 | 454 |
| COC1=CC=CC(=C1N)\C2=C\C(=O)C3=C(O2)C=CC=C3 | 432 | 428 | 419 | 464 | 466 | 463 | 469 | 459 | 465 |
| Cc1csc(NC(=O)c2sc3nc4c(c(C(F)(F)F)c3c2N)CCC4)n1 | 429 | 442 | 420 | 449 | 419 | 441 | 444 | 433 | 394 |
| C[C@]12CC[C@H]3[C@@H](C\C=C/4C[C@@H](O)CC[C@]34C)[C@@H]1CCC2=O | 468 | 454 | 462 | 439 | 448 | 460 | 449 | 438 | 454 |
| CN1CCCC(CC1)N2\N=C(CC3=CC=C(Cl)C=C3)/C4=C(C=CC=C4)C2=O (stereo not drawn) | 468 | 394 | 464 | 440 | 457 | 461 | 455 | 466 | 461 |
| CN(C)CCOc1ccc(-c2nc(-c3ccncc3)c(-c3ccc4c(c3)CC/C4=N\O)[nH]2)cc1 | 458 | 455 | 466 | 450 | 465 | 437 | 456 | 454 | 452 |
| CC(O)(C#Cc1ccc2c(c1)N(c1nc(N)ncc1Cl)CC2)c1nccs1 (stereo not drawn) | 469 | 430 | 465 | 455 | 467 | 468 | 477 | 468 | 464 |
| O=C(Nc1ncc(-c2cc(C(F)F)nn2-c2c(Cl)cccc2Cl)s1)C1CC1 | 347 | 333 | 340 | 398 | 381 | 370 | 329 | 326 | 345 |
| CCN(C(=O)C/1=C(O)/C2=C(C=CC=C2Cl)N(C)C1=O)C3=CC=CC=C3 | 272 | 258 | 250 | 319 | 306 | 328 | 356 | 322 | 308 |
| COCCOc1nc(-c2ccc(Cl)c(Cl)c2)n(-c2ccc(NC(=O)CCl)cc2)n1 | 444 | 430 | 430 | 460 | 408 | 433 | 469 | 450 | 421 |
| O=C1Nc2ccc(I)cc2/C1=C/c1cc(Br)c(O)c(Br)c1 | 466 | 457 | 451 | 469 | 457 | 448 | 469 | 468 | 458 |
| C[C@]12CC[C@@H]3c4ccc(O)cc4CC[C@H]3[C@@H]1C[C@@H](O)[C@@H]2O | 468 | 419 | 454 | 436 | 463 | 447 | 466 | 468 | 466 |
| Cc1[nH]c(/C=C2\C(=O)Nc3ccccc32)c(C)c1CCC(=O)O | 245 | 288 | 236 | 433 | 434 | 457 | 406 | 408 | 419 |
| CN[C@@H]1Cc2cccc3[nH]c(=O)n(c23)C1 | 442 | 454 | 452 | 455 | 450 | 458 | 449 | 445 | 456 |
| CC[C@H](C)C(=O)O[C@H]1C[C@H](O)\C=C2\C=C/[C@H](C)[C@H](CC[C@@H](O)C[C@@H](O)CC(O)=O)[C@@H]12 | 458 | 464 | 470 | 441 | 457 | 462 | 447 | 460 | 464 |

| SMILES | AUC of viability dose-response curve ([1]; HPLM + 10% dialyzed FBS) | AUC of viability dose-response curve ([1]; RPMI 5 mM glucose + 10% FBS) | AUC of viability dose-response curve [1, 4] | AUC of viability dose-response curve ([2]; HPLM + 10% dialyzed FBS) | AUC of viability dose-response curve ([2]; RPMI 5 mM glucose + 10% FBS) | AUC of viability dose-response curve [2, 4] | AUC of viability dose-response curve ([3]; HPLM + 10% dialyzed FBS) | AUC of viability dose-response curve ([3]; RPMI 5 mM glucose + 10% FBS) | AUC of viability dose-response curve [3, 4] |
| --- | --- | --- | --- | --- | --- | --- | --- | --- | --- |
| CC/1=C(/C(CC(=O)N1)C2=CC=C(C=C2)C(F)(F)F)C(=O)NC3=C(F)C=C4[NH]N=CC4=C3 (stereo not drawn) | 405 | 418 | 411 | 422 | 389 | 415 | 442 | 450 | 448 |
| O=C(O)/C=C/c1ccc(O)c(O)c1 | 447 | 423 | 428 | 454 | 453 | 462 | 449 | 447 | 443 |
| Cc1cc(Nc2nc(N[C@@H](C)c3ccc(F)cc3)c(C#N)cc2F)n[nH]1 | 367 | 368 | 364 | 414 | 362 | 394 | 396 | 399 | 393 |
| NCCCCNCCCN | 373 | 427 | 388 | 438 | 460 | 460 | 458 | 434 | 445 |
| Cn1cc(/C=C2\C(=O)Nc3cccnc32)c2ccccc21 | 430 | 421 | 415 | 464 | 451 | 449 | 414 | 442 | 437 |
| CN[C@@H](C)C(=O)N[C@H]1CN(C(=O)CC(C)C)CC[C@H]2CC[C@@H](C(=O)NC(c3ccccc3)c3ccccc3)N2C1=O | 431 | 406 | 423 | 317 | 336 | 361 | 411 | 406 | 424 |
| C/C(O)=C(\C#N)C(=O)Nc1cc(Br)ccc1Br | 441 | 442 | 434 | 420 | 439 | 442 | 462 | 469 | 449 |
| CC(/C=C/C(=O)NO)=C\[C@@H](C)C(=O)c1ccc(N(C)C)cc1 | 290 | 295 | 292 | 337 | 339 | 336 | 325 | 315 | 316 |
| C[S+](=O)([O-])c1cccc(CNc2nc(Nc3ccc4c(c3)CCC(=O)N4)ncc2C(F)(F)F)c1 | 331 | 367 | 355 | 436 | 446 | 454 | 450 | 444 | 451 |
| CN1CCC[C@@H]1CCO[C@](C)(c1ccccc1)c1ccc(Cl)cc1 | 469 | 472 | 471 | 466 | 461 | 473 | 463 | 467 | 474 |
| COc1ccc2c(c1)c(CC(=O)OCC(=O)O)c(C)n2C(=O)c1ccc(Cl)cc1 | 470 | 432 | 454 | 468 | 439 | 463 | 458 | 436 | 450 |
| COc1cc2nc(-c3cc(F)ccc3O)nc(N[C@@H]3CNC[C@H]3C(C)(C)O)c2cc1OC | 274 | 283 | 227 | 449 | 463 | 455 | 436 | 429 | 410 |
| NC(=O)C1CCCc2c1[nH]c1ccc(Cl)cc21 (stereo not drawn) | 343 | 381 | 365 | 370 | 401 | 404 | 417 | 436 | 421 |
| C[C@]12CC[C@H]3[C@@H](CCC/4=C/C(=O)CC[C@]34C)[C@@H]1CC[C@@H]2O | 467 | 450 | 444 | 463 | 460 | 462 | 468 | 467 | 470 |
| COC[C@H](c1ccc(C(F)(F)F)cc1)N1CCN(C2(C)CCN(C(=O)c3c(C)ncnc3C)CC2)C[C@H]1C.O=C(O)/C=C\C(=O)O | 445 | 410 | 450 | 409 | 411 | 424 | 469 | 454 | 467 |
| CNCc1ccc(-c2[nH]c3cc(F)cc4c3c2CCNC4=O)cc1 | 439 | 434 | 460 | 474 | 466 | 461 | 470 | 474 | 467 |
